Measurements: US4020111A, “Propynyloxy alkyl arene insecticides” (priority 1975, dated 1977)

Assays:
[1] = system: IN/WHO strain house flies; experiment: topical application test, percent kill after 24 hours, IN/WHO strain; assay type: in vivo, house fly (susceptible IN/WHO strain)
Method: (§1) In Table IX, and in the tables following it, the doses of topically applied insecticides and of synergists unless otherwise noted are expressed as micrograms per fly (μg/fly).
The synergistic effect of O-(2-propynyl) oximes with mobam was determined from topical application tests on susceptible, female, IN/WHO strain house flies and from tests on resistant, female, Rutgers A strain house flies. The synergist and insecticide were dissolved in ACS Grade acetone in such quantities that a 1.0μ liter volume applied to the thorax of 3-to-5 day old CO2 -anesthetized female adult house flies contained the desired dosage. After being treated, the flies were confined, 10 to a plaster petri dish, with 3-5 dishes/treatment, and held for 24-hr. observation of mortality. Reconstituted skim milk on cotton dental wicks was provided during the holding period. The percent kills after 24 hours are shown in Table X for the IN/WHO strain and Table XI for the Rutgers A strain.
The synergistic effect of benzyl 2-propynyl ethers with mobam was determined from topical application tests on IN/WHO and Rutgers A strain houseflies, following the procedure of Example 5. The percent kills after 24 hours are shown in Table XIV for the IN/WHO strain and in Table XV for the Rutgers A strain.
The effects of varying the insecticide dose and the synergist-insecticide ratio are further illustrated, with synergist compounds II-D, II-E, II-F and Mobam insecticide, in Tables XVI, XVII and XVIII.
The synergistic effect on IN/WHO flies of synergist compound II-K with Dimetilan, pyrolan, Baygon and HRS 1422 is illustrated by the 24 hour percent mortality data in Tables XIX, XX and XXI.
The effect on IN/WHO flies of synergist compound IV-C, identified in Table IV, with mobam was determined by the topical application procedure of Example 5.
The synergistic effect with Diazinon of compounds I-B, I-D, I-F, I-G, I-H and I-I, identified in Tables I and Ia, was determined from topical application tests on IN/WHO strain houseflies and on Rutgers A strain houseflies by the procedure of Example 5. The percent kills after 24 hours are shown in Table XXV for the IN/WHO strain and Table XXVI for the Rutgers A strain.
(§2) The synergistic effect with GS 13005 of compounds I-A, I-B, I-D, I-E, I-F, I-G and I-I was determined from topical application tests to IN/WHO strain, Rutgers A strain and polyvalent CH strain houseflies using the procedures of Example 5. The percent kills of the IN/WHO strain flies after 24 hours are shown in Table XXVIII; of the Rutgers A strain, in Table XXIX; and of the polyvalent CH strain, in Table XXX. The doses of insecticide alone to the CH strain files caused 10-40% mortality.
(§3) The synergistic effect with Diazinon and GS 13005 of various of the benzyl 2-propynyl ethers identified in Tables II and IIa was determined by topical application tests on IN/WHO strain, and Rutgers A strain and polyvalent, resistant, CH strain houseflies using the procedures of Example 5. The percent kills after 24 hours of IN/WHO strain flies are shown in Table XXXI; of Rutgers A strain flies, in Table XXXII; and of CH strain flies, in Table XXXIII. The doses of insecticide alone to the CH strain flies caused 10-40% mortality.
The synergist effect on IN/WHO flies of synergist compound II-K with Gardona and Bidrin is illustrated by the 24 hour percent mortality data in Tables XXXIV and XXXV.
The synergistic effect on IN/WHO strain flies and Rutgers A strain flies of compound IV-C with GS 13005 and with Diazinon was determined by the topical application procedure of Example 5. The percent kills of IN/WHO strain flies after 24 hours are shown in Tables XXXVI and XXXVII; the percent kills of Rutgers A strain flies are shown in Tables XXXVIII and XXXIX.

[2] = system: polyvalent resistant (CH strain) houseflies; experiment: whole plant or invertebrate; assay type: in vivo, housefly (CH strain); conditions: Musca domestica, topical, 24 h
Method: The effect of O-(2-propynyl) oximes with Dimetilan and with GS 13798 was obtained from tests on polyvalent resistant (CH strain) houseflies that had been chilled and to the dorsal region of which was applied an acetone solution of synergist and insecticide at a ratio of two to one. Duplicate tests were performed using 10 four to five-day old female houseflies per test. After dosage, the flies were put in a plastic petri dish with cotton soaked in a sugar-water solution. These doses of insecticide used without synergist caused 10-40% mortality.
as §1
The effect of compounds II-C, II-D and II-E with Dimetilan and GS 13798 was determined, following the procedure of Example 5, from tests on polyvalent resistant (CH strain) houseflies. These doses of insecticide used without synergist caused 10-40% mortality.
as §2, §3
The synergistic effect with pyrethrum of various synergist compounds was determined by topical application tests on polyvalent, resistant CH strain houseflies following the procedure of Example 5. Application of the insecticide alone caused 10-40% mortality.

mice [3] = experiment: synergism of acute toxicity of Dimetilan, GS 13005, Secobarbital and Methadone (intraperitoneal); assay type: in vivo, Swiss albino white male mice; conditions: for number of mice dead: 48 hours, of eight mice
Method: The synergism of the acute toxicity of Dimetilan by various synergists was determined by tests on Swiss albino, white male mice aged 5 to 6 weeks and weighing 23 to 27 grams. The synergists and insecticides were dissolved in corn oil and the drugs were dissolved in distilled water. All compounds were administered intraperitoneally by injection in the lower quadrent of the abdomen. The synergist was administered in 0.1 ml of corn oil 1 hour prior to administration of the insecticide. Eight mice were treated, per dosage, with each synergist. The mice were watched for a minimum of 6 hours while held in a glass jar with bedding individually after intraperitoneal injection of the test solutions. Lethality was noted, the animals were weighed and transferred in cages, and food and water were supplied. Control mice were given 0.1 ml of corn oil at the time of administration of the synergist to the test mice and 0.1 ml corn oil plus Dimetilan at the time of administration of the insecticide to the test mice.
By the same procedure, the synergism of acute toxicity of GS 13005, Secobarbital and 6-dimethylamino-4,4-diphenyl-3-heptanone [Methadone] was determined.

mice [4] = experiment: extension of Noludar sleeping time by synergists; assay type: in vivo, Swiss albino white male mice; conditions: Noludar 110 mg/K, synergist 110 mg/K; for Relative Sleeping Time: treated/control
Method: (§4) The selectivity of the synergist compounds of this invention is illustrated by the results of sleeping-time extension tests and of acute toxicity tests on Swiss albino white male mice.
(§5) The effect of various synergist compounds on sleeping time of sodium secobarbital [Secobarbital] and of 3,3-diethyl-5-methyl-2,4-dioxypiperidine [Noludar] was determined by administering the drug, with and without synergist, to approximately 38-day old male mice weighing from 25 to 30 grams. Synergists were administered in each of two doses, 74.0 mg/kg (dilution being 2.0 mg/0.1 ml corn oil), and 110.0 mg/kg (dilution 3.0 mg/0.1 ml oil). Secobarbital was administered at a dose of 37.0 mg/kg (dilution 1.0 mg/0.1 ml water). Noludar was administered at a dose of 110.0 mg/kg (dilution 3.0 mg/0.1 ml water). The synergist was administered one hour prior to administration of the Secobarbital or Noludar. Secobarbital and Noludar sleeping times were obtained for both the control (drug only) and the treated (synergist plus drug) mice by noting the time lapse between the administration of the drug and the recovery of the righting reflex, i.e. when the animal regains conciousness and can walk up an inclined wooden tray with coordination. The relative sleeping time (R.S.) was noted. The R.S. is the extended sleeping time in the treated mice (synergist plus drug) divided by the sleeping time in the control mice (drug only). The mean sleeping time for the treated mice and the R.S. are shown on Table XXXXIV for various synergist compounds.

mice [5] = experiment: extension of Secobarbital sleeping time by synergists; assay type: in vivo, Swiss albino white male mice; conditions: Secobarbital 37 mg/K; for Relative Sleeping Time: treated/control
Method: as §4, §5

[6] = system: Wilson strain house flies; assay type: in vivo, house fly (susceptible Wilson strain); conditions: for Contact Synergistic Ratio, Carbaryl (LC50 insecticide alone / LC50 with synergist): in vivo; for Contact Synergistic Ratio, Pyrolan (LC50 insecticide alone / LC50 with synergist): synergist to insecticide 5:1 by weight, 24 h
Method: The required solutions of the insecticide and of the synergist compound were prepared in acetone at a concentration of one milligram per milliliter. One-pint wide mouth glass jars were coated wiith the appropriate insecticide-synergist combination by rolling the jars containing aliquots of the appropriate solutions diluted to three milliliters with acetone to deposit, by evaporation, a film of the test materials. The flies were transferred under carbon dioxide anesthesia and held in the jar at room temperature. Perforated aluminum foil was used to cover the jars and to hold cotton saturated with 10% sugar solution. Counts were made at intervals, but the recorded mortality was based on 24-hour kill, rather than knockdown. All prostrate nonmoving flies were considered dead. A determination was then made of the contact synergistic ratio [SR], which is the ratio of the LC50 of insecticide alone to the LC50 of the insecticide when applied together with the synergist. The LC50 of the insecticide was estimated from a log-probit plot of percent kill versus dosage. […] The LC50 of the combination of insecticide and synergist was determined at a synergist to insecticide parts by weight ratio of five to one.

mice [7] = experiment: acute toxicity of Dimetilan alone and of synergist alone (intraperitoneal); assay type: in vivo, Swiss albino white male mice; conditions: synergist alone 1000 mg/kg ip, 72 hours, of eight mice
Method: To determine the acute toxicity of dimetilan alone, eight dosage levels of Dimetilan, ranging from 4 to 32 mg per kg wer applied to eight, Swiss, albino, white, male mice per dosage level. The mice weighed approximately 23 to 27 grams and were five to size weeks old. The Dimetilan was administered intraperitoneally in 0.1 ml of corn oil one hour after the administration of the same dose of corn oil alone.
To determine the acute toxicity of the synergist alone, various synergists were administered intraperitoneally at a dose of 1000 mg/kg to each of a group of eight mice. The number of animals dead at the end of 72 hours is reported in the left hand column of Table XXXXVI.

[8] = Dimetilan 8 mg/kg + synergist 240 mg/kg ip
[9] = Dimetilan 8 mg/kg + synergist 80 mg/kg ip

| Compound | number of mice dead (mice [3]; [8]) | Mean Sleeping Time (mice [4]) | Relative Sleeping Time (mice [4]) | Relative Sleeping Time (mice [5]; synergist 110 mg/K) | Contact Synergistic Ratio, Carbaryl (LC50 insecticide alone / LC50 with synergist) [6] | Contact Synergistic Ratio, Pyrolan (LC50 insecticide alone / LC50 with synergist) [6] | further results |
| --- | --- | --- | --- | --- | --- | --- | --- |
| CCOP(=S)(OCC)Oc1cc(C)nc(C(C)C)n1 [Diazinon, O,O-diethyl O-(2-isopropyl-4-methyl-6-pyrimidyl) phosphorothioate, reference compound] | – | – | – | – | – | – | percent kill after 24 hours ([1]; Diazinon alone 0.03 μg/fly, 1440 min): 5%; mortality at 5 µg/fly ([2]; read-out: mortality, insecticide alone): 10 to 40% |
| CNC(=O)Oc1cccc2ccc(C)nc12 [GS 13798, 8-(2-methylquinolyl)-N-methylcarbamate, reference compound] | – | – | – | – | – | – | mortality at 1 µg/fly ([2]; read-out: mortality, insecticide used without synergist): 10 to 40% |
| C#CCOCc1cc(Cl)c(Cl)cc1Cl [II-F] | 0 | 38 min | 1.3 | 1.0 | 150 | 15 | percent mortality 24 hours ([1]; Mobam 0.13 μg/fly, synergist/insecticide 5/1): 23%; Mean Sleeping Time (mice [5]; synergist 110 mg/K): 46 min |
| C#CCn1ncc2ccc(Cl)cc21 [III-D] | 1 | 45 min | 1.5 | 1.2 | 250 | 25 | Mean Sleeping Time (mice [5]; synergist 110 mg/K): 55 min |
| C#CCOC(c1ccc(Cl)cc1Cl)C(C)[N+](=O)[O-] (stereo not shown) [IV-A, 2-propynyl 1-(2,4-dichlorophenyl)-2-nitropropyl ether] | 7 | 78 min | 2.7 | – | 134 | 10 | number of mice dead (mice [3]; [9]): 4; Mean Sleeping Time (mice [5]; synergist 74 mg/K): 56 min; Relative Sleeping Time (mice [5]; synergist 74 mg/K): 2.3 |
| Cc1cc(OC(=O)N(C)C)n(-c2ccccc2)n1 [Pyrolan, 3-methyl-1-phenyl-5-pyrazolyl-N-dimethylcarbamate, reference compound] | – | – | – | – | – | – | 24 hour percent mortality ([1]; Pyrolan alone 0.63 μg/fly): 0%; 24 hour percent mortality ([1]; Pyrolan alone 1.3 μg/fly): 3%; 24 hour percent mortality ([1]; Pyrolan alone 2.5 μg/fly): 10%; 24 hour percent mortality ([1]; Pyrolan alone 5.0 μg/fly): 43%; LC50 of insecticide alone ([6]; insecticide alone, 24-hour kill): 0.15 mg/jar |
| CCOCCOCCOC(C)Oc1ccc2c(c1)OCO2 (stereo not shown) [Sesoxane, reference compound] | 8 | – | 3.1 | 8.3 | – | – | number of mice dead (mice [3]; [9]): 8; mice lethality (number dead) (mice [3]; GS 13005 71 mg/kg + synergist 213 mg/kg): 0; mice lethality (number dead) (mice [3]; Methadone 32 mg/kg + synergist 215 mg/kg): 5; mice lethality (number dead) (mice [3]; Secobarbital 90 mg/kg + synergist 215 mg/kg): 6; number of mice dead (mice [7]): 1; Relative Sleeping Time (mice [5]; synergist 74 mg/K): 6.1 |
